Laboratory results taken from BindingDB's records for doi:10.7270/Q2X928QK (University of Pittsburgh, 2007).
pIC50: −log10 of the molar value.

Target: T1, M-phase inducer phosphatase 2 (Homo sapiens, UniProt P30305)
T1 sequence (P30305 whole entry): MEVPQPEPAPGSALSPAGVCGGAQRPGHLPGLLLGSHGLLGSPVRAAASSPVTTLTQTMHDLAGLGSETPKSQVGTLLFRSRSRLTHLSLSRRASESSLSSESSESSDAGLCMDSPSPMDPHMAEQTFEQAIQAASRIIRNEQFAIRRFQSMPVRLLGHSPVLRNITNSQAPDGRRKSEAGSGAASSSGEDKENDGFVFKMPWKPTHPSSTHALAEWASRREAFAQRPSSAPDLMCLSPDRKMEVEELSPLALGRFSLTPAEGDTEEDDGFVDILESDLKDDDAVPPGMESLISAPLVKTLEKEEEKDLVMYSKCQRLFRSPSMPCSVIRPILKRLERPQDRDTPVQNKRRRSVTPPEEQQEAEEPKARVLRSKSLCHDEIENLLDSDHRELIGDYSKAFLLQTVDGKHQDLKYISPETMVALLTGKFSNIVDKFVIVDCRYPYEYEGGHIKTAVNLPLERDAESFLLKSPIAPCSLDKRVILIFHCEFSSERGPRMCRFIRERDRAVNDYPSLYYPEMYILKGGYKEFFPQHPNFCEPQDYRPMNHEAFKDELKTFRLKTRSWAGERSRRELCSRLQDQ
Assay: Cdc25B phosphatase inhibitors with catalase present, dose response, biochemical, probe assessment (AID 668)

Point of comparison: `COc1cccc2c1NC(C(=O)O)C1CC=CC21` (stereo not given) [SMR000009698], pIC50 5.21. Against it:
- N#Cc1c(N)sc(=S)c2c1CCN(Cc1ccccc1)C2 [3-Amino-7-benzyl-1-thioxo-5,6,7,8-tetrahydro-1H-thiopyrano[3,4-c]pyridine-4-carbonitrile] — 0.36 log units lower, 4.85
- COc1ccc2noc3c2c1C(=O)c1ccccc1-3 [MLS000106874] — lower, < 4.30
- O=C(NC1(O)C(=O)c2ccccc2C1=O)c1ccccc1 [N-(2-hydroxy-1,3-dioxo-2-indenyl)benzamide] — lower, < 4.30
- COc1ccc(Br)cc1C=c1sc2nc(-c3ccco3)nn2c1=O [5-[(5-bromanyl-2-methoxy-phenyl)methylidene]-2-(furan-2-yl)-[1,3]thiazolo[3,2-b][1,2,4]triazol-6-one] — within 0.2 log units, 5.38
- O=C(O)C1Nc2c(O)cccc2C2C=CCC12 (stereo not given) — 0.25 log units lower, 4.96
- Cc1ccc2c(c1)C1C=CCC1C(C(=O)O)N2 (stereo not given) [MLS-0067149.0001] — within 0.2 log units, 5.13
- O=C(OC1CCCCC1)c1ccc2c(c1)C1C=CCC1C(C(=O)O)N2 (stereo not given) [SMR000019385] — 0.21 log units higher, 5.42
- [O-]/[N+](=C\c1ccncc1)c1ccccc1 — lower, < 4.30
- CCOc1ccc2noc3c2c1C(=O)c1ccccc1-3 [MLS000106837] — lower, < 4.30
- Cc1ccc2c(c1C)NC(C(=O)O)C1CC=CC21 (stereo not given) — within 0.2 log units, 5.15
- Cn1ncnc2c(=O)n(C)c(=O)nc1-2 — 0.57 log units lower, 4.64
- N#Cc1c(N2CCCC2)nc(N)c2c(N)nc(N3CCCC3)cc12 [SMR000061605] — lower, < 4.30
- Oc1nc(Nc2ccccc2)cc2ccccc12 [MLS000043701] — 0.87 log units lower, 4.34
- [O-]/[N+](=C\c1ccc(OC(F)F)cc1)c1ccccc1 [1-[4-(difluoromethoxy)phenyl]-N-phenylmethanimine oxide] — lower, < 4.30
- CCn1nc(-c2ccccc2)nc2c(=O)n(C)c(=O)nc1-2 [1-Ethyl-6-methyl-3-phenyl-1H-pyrimido[5,4-e][1,2,4]triazine-5,7-dione] — 0.51 log units lower, 4.70
- Cc1ccccc1Nc1cc2ccccc2c(O)n1 [3-[(2-methylphenyl)amino]-2H-isoquinolin-1-one] — 0.86 log units lower, 4.35
- CCOC(=O)C(C(=O)OCC)c1cc(Br)c2noc3c2c1C(=O)c1ccccc1-3 [MLS000038842] — lower, < 4.30
- Cc1c(N=c2c(=O)c3ccccc3c2=O)c(=O)n(-c2ccccc2)n1C [MLS000105950] — lower, < 4.30
- O=C1C=Cc2ccccc2C1=O [1,2-dihydronaphthalene-1,2-dione] — 0.61 log units lower, 4.60
- Nc1cccc2cnccc12 [isoquinolin-5-amine] — lower, < 4.30
- CC(=O)Nc1cc(OC(C)=O)c2nonc2c1OC(C)=O [Acetic acid 7-acetoxy-5-acetylamino-benzo[1,2,5]oxadiazol-4-yl ester] — lower, < 4.30
- O=C(Nc1ccc2nc(-c3ccco3)c(-c3ccco3)nc2c1)N1CCCCCC1 — 0.56 log units lower, 4.65
- CCn1nc(-c2cccs2)nc2c(=O)n(C)c(=O)nc1-2 [1-ethyl-6-methyl-3-thiophen-2-yl-pyrimido[5,4-e][1,2,4]triazine-5,7-dione] — lower, < 4.30
- O=C1Cc2ccccc2C(=O)N1CCc1ccccc1 [2-(2-phenylethyl)-4H-isoquinoline-1,3-dione] — 0.90 log units lower, 4.31
